In patent publication US11457624B2, “Adjuvant compositions for plant treatment chemicals” (CORBET SCIENTIFIC, LLC, priority 2016, dated 2022):

Experiments:
[1] = system: woody shrubs and mixed grasses; conditions: general statement, no source given; cited from earlier work
[2] = system: bacterial spot (Xanthomonas euvesicatoria) on pepper; assay: Bacterial spot on pepper, field trial (disease severity, AUDPC); type: in vivo
Procedure: (§1) Field studies were conducted at the University of Florida, Southwest Florida Research and Education Center, Immokalee, Fla. For pepper trials, average monthly high and low temperatures were 98° F. and 70° F. in month one; 94° F. and 63° F. in month two; and 94° F. and 51° F. in month three; rainfall totaled 11.02, 0.95, and 2.41 inches for the same monthly periods, respectively. For squash trials, average monthly high and low temperatures were 93° F. and 45° F. in month one; 96° F. and 55° F. in month two; and 96° F. and 55° F. in month three; rainfall totaled 2.00, 3.35, and 5.59 inches for the same monthly periods, respectively.
(§2) In all trials, seedlings were transplanted into Immokalee fine sand on day 0. Treatments were arranged in a complete randomized block treatment design with four replicates. For pepper trials, ‘Capistrano’ seedlings were arranged in plots comprising 10 plants in a single row spaced 10 inches apart within a 36 inch wide row with 5 feet between each plot and 12 feet center to center between rows. For squash trials, four week old ‘Dixie’ plants were arranged in plots comprising eight plants spaced 3 feet apart with a 27 foot row and with 10 feet between each plot.
(§3) Each treatment formulation was spray applied. For pepper trials, treatment formulations were applied using a backpack CO2 sprayer at 40 psi with a single hollow-cone nozzle at 30 gal/A. Silicon was applied as sodium metasilicate nonahydrate (Na2SiO3.9H2O). For squash trials, treatment formulations were applied with a high clearance sprayer 2 mph and at 200 psi. A double drop boom equipped with six nozzles delivered a spray volume of 90 gal/A for tomato plants or 80 gal/A for squash plants.
For pepper trials, a suspension of inoculum of bacterial spot containing strains of several races was applied at day 22 and new inoculum was introduced periodically throughout the remainder of the trial.
(§4) For each trial, disease severity was assessed by visually estimating the percentage of foliage with symptoms of disease. For pepper trials, plants were examined for symptoms of bacterial spot. For squash trials, plants were examined for powdery mildew. The area under the disease progress curve (AUDPC) was calculated from disease severity ratings. In some trials, fruit was harvested and evaluated for the amount of marketable fruit produced per plot. Data were analyzed within the statistical program of ARM 9.1 (pepper trials) or ARM 9.0 (tomato and squash trials) by ANOVA and means separated by LSD.
Transplanted Capsicum annuum ‘Capistrano’ pepper seedlings were grouped into one of six treatment groups. Group one was an untreated control. The remaining five groups were spray treated with formulations that differed in their chemical compositions (Table 7).
plants on days 14, 21, 28, 35, 42, 49, 56, 64, 71, 77, and 84. Plants were inoculated with a bacterial suspension (Xanthomonas euvesicatoria) on day 22 and periodically throughout the remainder of the trial. […]

[3] = system: Capsicum annuum Capistrano pepper plants; assay: Pepper harvest data, field trial; type: in vivo
Procedure: as §1, §2, §3, §4
Fruit was harvested on days 61 and 83.

[4] = sprays A-K, rates as in Table 7

Row | SMILES | time normally required to begin to see an effect on grassy plants [1] | AUDPC (area under the disease progress curve) ([2]; calculated from disease severity ratings) [ab] | Disease Severity Day 41 ([2]; sprays A-K (Day 14-84), rates as in Table 7, inoculated day 22) | Disease Severity Day 47 [2, 4] | Disease Severity Day 58 [2, 4] | Disease Severity Day 61 [2, 4] | Disease Severity Day 71 [2, 4] | Marketable Fruit in Pound per Plot ([3]; Day 61) [a Pound per Plot] | Number of Marketable Fruit per Plot ([3]; Day 61) [a per Plot] | Marketable Number of Fruit per Plot ([3]; Day 83) [a per Plot] | Marketable fruit weight per plot ([3]; Day 83) [a Pound per Plot] | Non-Marketable Fruit in Pound per Plot ([3]; Day 83) [a Pound per Plot] | Non-Marketable Fruit per Plot ([3]; Day 83) [ab per Plot]
1 | CC(C)C1(C)N=C(c2ncccc2C(=O)O)NC1=O (stereo not shown) [Imazapyr] | 2-5 months | – | – | – | – | – | – | – | – | – | – | – | –
2 | O.O.O.O.O.O.O.O.O.O=[Si]([O-])[O-].[Na+].[Na+] [Silicon, sodium metasilicate nonahydrate] | – | 518.42 | 10.3 a percentage of symptomatic foliage | 21.5 a percentage of symptomatic foliage | 21.3 ab percentage of symptomatic foliage | 15 ab percentage of symptomatic foliage | 22.5 ab percentage of symptomatic foliage | 2.9 | 12 | 26.3 | 7.38 | 0.35 | 1
